Results as given in US6548495B2, “Dihydro-benzo [B] [1,4] diazepin-2-one derivatives” (Hoffmann-La Roche Inc., priority 2002, dated 2003).

Assays:
[1] = target: T1, recombinant rat mGluR2 expressed in CHO cells (Rattus norvegicus, UniProt P31421); test: [3H]-LY354740 binding on mGlu2 transfected CHO cell membranes (displacement binding assay); settings: displacement of 10 nM [3H]-LY354740, membranes of CHO cells expressing rat mGlu2, room temperature, 1 hour; Ki calculated from IC50 with the Cheng and Prusoff equation
T1 construct: expressed in transfected cells; host or cells: CHO cells, stably transfected with pcD1mGR2 (pcDNA I-amp), G-418 selected; membranes used
Description: In Table I below some specific Ki values of preferred compounds of the invention are presented. These values were obtained by indirect measurement of the affinity of the compounds for the recombinant rat mGluR2 expressed in CHO cells using a displacement binding assay with 3H-LY354740.
[^3H]-LY354740 Binding on mGlu2 Transfected CHO Cell Membranes
Transfection and Cell Culture
cDNA encoding the rat mGlu2 receptor protein in pBluescript II was obtained from Prof. S. Nakanishi (Kyoto, Japan), and subcloned into the eukaryotic expression vector pcDNA I-amp from Invitrogen (NV Leek, The Netherlands). This vector construct (pcD1mGR2) was co-transfected with a psvNeo plasmid encoding the gene for neomycin resistance, into CHO cells by a modified calcium phosphate method described by Chen & Okayama (1988). The cells were maintained in Dulbecco's Modified Eagle medium with reduced L-glutamine (2 mM final concentration) and 10% dialysed foetal calf serum from Gibco BRL (Basel, Switzerland). Selection was made in the presence of G-418 (1000 ug/mL final). Clones were identified by reverse transcription of 5 μg total RNA, followed by PCR using mGlu2 receptor specific primers 5′-[…]-3′ and 5′-[…]-3′ in 60 mM Tris HCl (pH 10), 15 mM (NH4)2SO4, 2 mM MgCl2, 25 units/mL Taq Polymerase with 30 cycles annealing at 60° C. for 1 min., extention at 72° C. for 30 s, and 1 min. 95° C. denaturation.
Cells, cultured as above, were harvested and washed three times with cold PBS and frozen at −80° C. The pellet was resuspended in cold 20 mM HEPES-NaOH buffer containing 10 mM EDTA (pH 7.4), and homogenised with a polytron (Kinematica, AG, Littau, Switzerland) for 10 s at 10000 rpm. After centrifugation for 30 min. at 4° C., the pellet was washed once with the same buffer, and once with cold 20 mM HEPES-NaOH buffer containing 0.1 mM EDTA, (pH 7.4). Protein content was measured using the Pierce method (Socochim, Lausanne, Switzerland) using bovine serum albumin as standard.
After thawing, the membranes were resuspended in cold 50 mM Tris-HCl buffer containing 2 mM MgCl2 and 2 mM CaCl2, (pH 7) (binding buffer). The final concentration of the membranes in the assays was 25 μg protein/mL. Inhibition experiments were performed with membranes incubated with 10 nM [^3H]-LY354740 at room temperature, for 1 hour, in presence of various concentrations of the compound to be tested. Following the incubations, membranes were filtered onto Whatmann GF/C glass fiber filters and washed 5 times with cold binding buffer. Non specific binding was measured in the presence of 10 μM DCG IV. After transfer of the filters into plastic vials containing 10 mL of Ultima-gold scintillation fluid (Packard, Züirich, Switzerland), the radioactivity was measured by liquid scintillation in a Tri-Carb 2500 TR counter (Packard, Züirich, Switzerland).
The inhibition curves were fitted with a four parameter logistic equation giving IC50 values, and Hill coefficients and the Ki values were calculated using the Cheng and Prusoff equation (Cheng, Y. and Prusoff, W. H., Biochem. Pharmacol. 1973, 22, 3099-3108). A small Ki value expresses high affinity of the compound towards the receptor.

T1 sequence (P31421 19-872): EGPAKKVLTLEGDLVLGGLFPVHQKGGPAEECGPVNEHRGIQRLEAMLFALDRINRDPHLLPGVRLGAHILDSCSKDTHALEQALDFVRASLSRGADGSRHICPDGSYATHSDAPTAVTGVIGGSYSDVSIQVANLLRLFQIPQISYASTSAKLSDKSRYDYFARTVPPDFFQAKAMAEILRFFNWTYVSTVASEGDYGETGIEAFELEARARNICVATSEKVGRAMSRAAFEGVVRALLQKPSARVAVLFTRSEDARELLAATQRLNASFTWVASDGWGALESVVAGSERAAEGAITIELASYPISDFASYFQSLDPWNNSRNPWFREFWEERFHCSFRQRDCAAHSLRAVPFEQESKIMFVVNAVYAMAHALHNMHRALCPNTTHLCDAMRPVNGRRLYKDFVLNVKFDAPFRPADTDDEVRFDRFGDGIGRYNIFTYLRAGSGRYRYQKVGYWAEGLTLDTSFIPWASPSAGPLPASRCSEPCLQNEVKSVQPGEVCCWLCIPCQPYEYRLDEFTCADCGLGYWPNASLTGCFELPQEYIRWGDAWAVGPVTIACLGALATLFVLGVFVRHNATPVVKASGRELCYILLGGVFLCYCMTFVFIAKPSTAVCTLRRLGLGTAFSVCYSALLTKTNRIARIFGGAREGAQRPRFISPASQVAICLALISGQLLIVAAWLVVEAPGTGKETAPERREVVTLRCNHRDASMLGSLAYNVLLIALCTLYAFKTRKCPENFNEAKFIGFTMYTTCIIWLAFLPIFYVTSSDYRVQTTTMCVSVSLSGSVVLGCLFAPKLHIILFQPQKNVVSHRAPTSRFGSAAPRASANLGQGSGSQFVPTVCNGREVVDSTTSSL

Row | melting point | Ki [1] | SMILES
1 | 222 to 224 °C | 29 nM | CCOC(=O)c1ncoc1-c1cccc(C2=Nc3ccc(-n4cccc4)cc3NC(=O)C2)c1 [Example 23, 5-[3-(4-oxo-7-Pyrrol-1-yl-4,5-dihydro-3H-benzo[b][1,4]diazepin-2-yl)-phenyl]-oxazole-4-carboxylic Acid Ethyl Ester]
2 | 206 °C | 15.5 nM | O=C1CC(c2cccc(-n3nncc3CNC3CC3)c2)=Nc2cc(Cl)c(C(F)(F)F)cc2N1 [Example 67, 7-Chloro-4-[3-(5-cyclopropylaminomethyl-[1,2,3]triazol-1-yl)-phenyl]-8-trifluoromethyl-1,3-dihydro-benzo[b][1,4]diazepin-2-one]
3 | 242 to 244 °C | 91 nM | O=C1CC(c2cccc(-c3nc(C(=O)NCCO)co3)c2)=Nc2ccc(-n3cccc3)cc2N1 [Example 34, 2-[3-(4-oxo-7-Pyrrol-1-yl-4,5-dihydro-3H-benzo[b][1,4]diazepin-2-yl)-phenyl]-oxazole-4-carboxylic Acid (2-Hydroxy-ethyl)-amide]
4 | 214 to 217 °C | 6.5 nM | Cc1cc2c(cc1C(F)(F)F)NC(=O)CC(c1cccc(-c3nc(CO)sc3C)c1)=N2 [Example 84, 4-[3-(2-Hydroxymethyl-5-methyl-thiazol-4-yl)-phenyl]-7-methyl-8-trifluoromethyl-1,3-dihydro-benzo[b][1,4]diazepin-2-one]
5 | 214 °C | 83.5 nM | CCOc1cc2c(cc1C(F)(F)F)NC(=O)CC(c1cccc(-n3nncc3CO)c1)=N2 [Example 52, 7-Ethoxy-4-[3-(5-hydroxymethyl-[1,2,3]triazol-1-yl)-phenyl]-8-trifluoromethyl-1,3-dihydro-benzo[b][1,4]diazepin-2-one]
6 |  | 75 nM | N#Cc1cccc(C2=Nc3ccc(-n4ccc(-c5ccccc5)c4)cc3NC(=O)C2)c1 [Example 12, 3-[4-oxo-7-(3-Phenyl-pyrrol-1-yl)-4,5-dihydro-3H-benzo[b][1,4]diazepin-2-yl]-benzonitrile]
7 | 220 °C | 20 nM | N#Cc1cc(C2=Nc3cc(N4CCOCC4)c(C(F)(F)F)cc3NC(=O)C2)ccn1 [Example 2, 4-(8-Morpholin-4-yl-4-oxo-7-trifluoromethyl-4,5-dihydro-3H-benzo[b][1,4]diazepin-2-yl)-pyridine-2-carbonitrile]
8 | 235 °C | 70 nM | Cc1cc2c(cc1C(F)(F)F)NC(=O)CC(c1cccc(-n3cccn3)c1)=N2 [Example 77, 7-Methyl-4-(3-pyrazol-1-yl-phenyl)-8-trifluoromethyl-1,3-dihydro-benzo[b][1,4]diazepin-2-one]
9 | 238 to 240 °C | 28 nM | O=C1CC(c2cccc(-c3nc(CO)cs3)c2)=Nc2ccc(-n3cccc3)cc2N1 [Example 20, 4-[3-(4-Hydroxymethyl-thiazol-2-yl)-phenyl]-8-pyrrol-1-yl-1,3-dihydro-benzo[b][1,4]diazepin-2-one]
10 |  | 44 nM | COc1cc2c(cc1-n1cccc1)NC(=O)CC(c1cccc(C#N)c1)=N2 [Example 17, 3-(8-Methoxy-4-oxo-7-pyrrol-1-yl-4,5-dihydro-3H-benzo[b][1,4]diazepin-2-yl)-benzonitrile]
11 | 211 °C | 6 nM | Cn1nccc1-c1cccc(C2=Nc3cc(N4CCOCC4)c(C(F)(F)F)cc3NC(=O)C2)c1 [Example 38, 4-[3-(2-Methyl-2H-pyrazol-3-yl)-phenyl]-7-morpholin-4-yl-8-trifluoromethyl-1,3-dihydro-benzo[b][1,4]diazepin-2-one]
12 | 181 °C | 26 nM | Cc1cc2c(cc1C(F)(F)F)NC(=O)CC(c1cccc(-n3nncc3CNC3CC3)c1)=N2 [Example 69, 4-[3-(5-Cyclopropylaminomethyl-[1,2,3]triazol-1-yl)-phenyl]-7-methyl-8-trifluoromethyl-1,3-dihydro-benzo[b][1,4]diazepin-2-one]
13 | 195 to 199 °C | 0.9 nM | N#Cc1cc(C2=Nc3cc(N4CCSCC4)c(C(F)(F)F)cc3NC(=O)C2)ccn1 [Example 42, 4-(4-oxo-8-Thiomorpholin-4-yl-7-trifluoromethyl-4,5-dihydro-3H-benzo[b][1,4]diazepin-2-yl)-pyridine-2-carbonitrile]
14 | 215 to 217 °C (dec.) |  | O=C1CC(c2cccc(I)c2)=Nc2ccc(-n3cccc3)cc2N1 [Example 7, 4-(3-Iodo-phenyl)-8-pyrrol-1-yl-1,3-dihydro-benzo[b][1,4]diazepin-2-one]
15 | 215 °C |  | CCOc1cc2c(cc1C(F)(F)F)NC(=O)CC(c1cccc(-n3ccnn3)c1)=N2 [Example 56, 7-Ethoxy-4-(3-[1,2,3]triazol-1-yl-phenyl)-8-trifluoromethyl-1,3-dihydro-benzo[b][1,4]diazepin-2-one]
16 | 228 to 230 °C |  | O=C1CC(c2cccc(-c3ocnc3C(=O)NCCO)c2)=Nc2ccc(-n3cccc3)cc2N1 [Example 24, 5-[3-(4-oxo-7-Pyrrol-1-yl-4,5-dihydro-3H-benzo[b][1,4]diazepin-2-yl)-phenyl]-oxazole-4-carboxylic Acid (2-Hydroxy-ethyl)-amide]
17 | 225 °C |  | COc1cc2c(cc1C(F)(F)F)NC(=O)CC(c1cccc(-c3cc(C)no3)c1)=N2 [Example 45, 7-Methoxy-4-[3-(3-methyl-isoxazol-5-yl)-phenyl]-8-trifluoromethyl-1,3-dihydro-benzo[b][1,4]diazepin-2-one]
18 | 225 °C |  | O=C1CC(c2cccc(-n3ccnc3)c2)=Nc2cc(Cl)c(C(F)(F)F)cc2N1 [Example 72, 7-Chloro-4-(3-imidazol-1-yl-phenyl)-8-trifluoromethyl-1,3-dihydro-benzo[b][1,4]diazepin-2-one]
19 | 236 to 238 °C |  | O=C1CC(c2cccc(-c3csc(C(=O)NCCO)n3)c2)=Nc2ccc(-n3cccc3)cc2N1 [Example 32, 4-[3-(4-oxo-7-Pyrrol-1-yl-4,5-dihydro-3H-benzo[b][1,4]diazepin-2-yl)-phenyl]-thiazole-2-carboxylic Acid (2-Hydroxy-ethyl)-amide]
20 | 191 °C |  | O=C1CC(c2cccc(-n3ncnc3CNC3CC3)c2)=Nc2cc(Cl)c(C(F)(F)F)cc2N1 [Example 66, 7-Chloro-4-[3-(5-cyclopropylaminomethyl-[1,2,4]triazol-1-yl)-phenyl]-8-trifluoromethyl-1,3-dihydro-benzo[b][1,4]diazepin-2-one]
21 | 259 °C |  | N#Cc1cccc(C2=Nc3cc(N4CCOCC4)c(C#N)cc3NC(=O)C2)c1 [Example 59, 2-(3-Cyano-phenyl)-8-morpholin-4-yl-4-oxo-4,5-dihydro-3H-benzo[b][1,4]diazepine-7-carbonitrile]
22 | > 207 °C (dec.) |  | COC(=O)c1cccn1-c1ccc2c(c1)NC(=O)CC(c1cccc(C#N)c1)=N2 [Example 15, 1-[2-(3-Cyano-phenyl)-4-oxo-4,5-dihydro-3H-benzo[b][1,4]diazepin-7-yl]-1H-pyrrole-2-carboxylic Acid Methyl Ester]
23 | 243 to 245 °C |  | N#CCc1cc2c(cc1I)NC(=O)CC(c1cccc(-n3ccnc3)c1)=N2 [Example 37, [4-(3-Imidazol-1-yl-phenyl)-8-iodo-2-oxo-2,3-dihydro-1H-benzo[b][1,4]diazepin-7-yl]-acetonitrile]
24 | 241 to 242 °C |  | Cc1cc2c(cc1C(F)(F)F)NC(=O)CC(c1cccc(-c3ncoc3C)c1)=N2 [Example 83, 7-Methyl-4-[3-(5-methyl-oxazol-4-yl)-phenyl]-8-trifluoromethyl-1,3-dihydro-benzo[b][1,4]diazepin-2-one]
25 | 243 to 244 °C |  | N#Cc1cc(C2=Nc3ccc(-n4cccc4)cc3NC(=O)C2)ccn1 [Example 82, 4-(4-oxo-7-Pyrrol-1-yl-4,5-dihydro-3H-benzo[b][1,4]diazepin-2-yl)-pyridine-2-carbonitrile]
